Data: US12324858B2, “Pharmaceutical formulation and system and method for delivery” (Rilento Pharma, LLC, priority 2018, dated 2025)
“Also recorded” adds a separate entry of the source. Where a name gives a salt, the structure may show the parent alone.

Assays:
[1] = Background UV spectra of individual ingredients in pH-2 water; format: physicochemical
Description: Using the same instrument parameters and cuvettes, spectra were also acquired for each individual ingredient in the mixtures for the purpose of determining background contributions to the overall absorbance spectra that were obtained for the fully formulated mixtures. […] In this way, the background experiments were representative of the highest degree of spectral background contribution that might be potentially observed for the fully formulated devices if the devices were to completely disintegrate and dissolve during the water-soak experiment.
BUP-HCl is known to be a strong chromophore with a documented UV absorption maximum at 262 nm (Corciova, A., Eur. Chem. Bull., 2012, 2(8), 554-557).

[2] = Suspension test of candidate liquids with GLBG (gelation); format: physicochemical; conditions: for Gelation of GLBG suspended in the liquid: 2/1 w/w liquid to GLBG, monitoring window 0-24 and 0-48 hours; for Suitable for use in a hydrophilic device / Suitable for use in a hydrophobic device: suspension test with GLBG
Procedure: The suspensions are then qualitatively monitored as a function of time for physical changes, such as the onset of gelation, by using any one of a variety of possible qualitative or quantitative techniques. Note that other liquid to gelatin ratios can also be employed, including ratios that are intended for use in various end-applications. […] Monitoring times of suspensions can include various time points after the suspensions are mixed, including for example, 5 minutes after mixing, 0.5 hours after mixing, 1 hour after mixing, 5 hours after mixing, 24 hours after mixing, 48 hours after mixing, 1 week after mixing, 1 month after mixing, 6 months after mixing, 1 year after mixing, and even 2 to 5 years after mixing. […] Of course, quantitative measurements can also be employed if so desired (e.g., Brookfield viscosity, parallel plate dynamic mechanical techniques, etc.). […] Conversely, if there are signs of gelation, including for example, any one or more of the following responses before the end of the monitoring time window: 1) development of elastic recovery; 2) visualization of permanent coalescence of gelatin particulates; or 3) solid network formation with loss of pourability, then these liquids are by definition excluded as candidates for use in more hydrophobic formulations, and are instead considered as candidate liquids for use in preparing more hydrophilic formulations. […] A spatula was used to stir the ingredients to create a suspension. The suspensions were then allowed to set under static conditions and were qualitatively monitored as a function of time. Results at t=5 minutes after mixing, t=0.5 hours after mixing, t=5 hours after mixing, t=24 hours after mixing, and at t=48 hours after mixing were reported. The tests were conducted at 20 degrees C. with one exception, one of the tests was conducted at 27 degrees C. to ensure that the carrier was above its melt point and in its liquid state.

[3] = mineral oil estimated, cited from earlier work; for HANtotal: Hansen Solubility Parameter, total; for HAN δDispersion / HAN δH-bonding / HAN δPolar: Hansen

Row | Compound | Gelation of GLBG suspended in the liquid [2] | Suitable for use in a hydrophilic device [2] | Suitable for use in a hydrophobic device [2] | HAN δDispersion [3] | HAN δH-bonding [3] | HAN δPolar [3] | also measured
1 | CCCCN1CCCCC1C(=O)Nc1c(C)cccc1C (stereo not shown) [BUP free base, bupivacaine] |  |  |  |  |  |  | Relative Absorbance at 270 nm at t = 24 hrs. ([1]; individual ingredient in pH-2 water, background UV spectrum): > or = 4 (i.e.,; Solubility in water ([1]; water): low solubility in water
2 | CCCCN1CCCCC1C(=O)Nc1c(C)cccc1C (stereo not shown) [BUP-HCl, bupivacaine] |  |  |  |  |  |  | Solubility in pH-2 water ([1]; mildly acidic conditions, pH-2 water (dilute HCl)): completely soluble under these conditions
3 | OCC(O)CO [Glycerin] | lead to gelation of gelatin | Yes | No |  |  |  | Gelation of GLBG suspended in the liquid ([2]; listed as glycerin): work time window prior to the onset of gelation was observed to be significantly longer
4 | OCC(O)CO [Glycerol] |  |  |  | 17.4 MPa^1/2 | 29.3 MPa^1/2 | 12.1 MPa^1/2 | HANtotal [3]: 36.2 MPa^1/2; HSP ([3]; Hildebrand Solubility Parameter): 33.8 MPa^1/2
5 | CCCCCCCC(=O)OCC(COC(=O)CCCCCCC)OC(=O)CCCCCCC [caprylic triglyceride] | no signs of gelation | No | Yes | 16.2 MPa^1/2 | 4 MPa^1/2 | 3.4 MPa^1/2 | HANtotal [3]: 17.0 MPa^1/2
6 | CCCCCCCCCCCCCCCC(=O)OC(C)C [isopropyl palmitate] | no signs of gelation | No | Yes |  |  |  | 
7 | water | lead to gelation of gelatin; also recorded: gelation and elastic network formation was observed to begin almost immediately | Yes | No | 15.5 MPa^1/2 | 42.4 MPa^1/2 | 16.0 MPa^1/2 | 
